Patent publication US10617734B2, “STAT3 and ERK signal pathway inhibitor comprising mogrosides and analogs thereof” (BEIJING UNIVERSITY OF AGRICULTURE, priority 2014, dated 2020)

Tests used:
[1] = test system: histiocytic lymphoma U937 cells; experiment: Cell cycle distribution, PI staining, flow cytometer; assay type: cell-based; conditions: 24 h; for proportion of cells in G0/G1 phase with the rise of the concentration: U937 cells, 0, 1, 10, 150 and 250 μmol/L; for cell cycle distribution (proportion of cells of G0/G1 phase): U937 cells, 10 μmol/L
Text: (§1) The influences of Mogroside I E1, Mogroside II A2 and mogrol on the cell cycle distribution of the histiocytic lymphoma U937 cells, the human melanoma A875 cells and the leukemia cells K562.
(§2) The cell cycle arrest achieved by drugs is an important approach to the inhibition of cancer cell proliferation.

[2] = test system: human melanoma A875 cells; experiment: as above; assay type: cell-based; conditions: human melanoma A875 cells, 10 μmol/L, 24 h
Text: as §1, §2

[3] = test system: cycle regulatory protein P21; experiment: Western Blotting of P21 in K562 cells; assay type: cell-based, human; conditions: leukemia cells K562, 10 μmol/L, 24 h
Experimental: (§3) The STAT3 and ERK signal pathways can regulate cyclins and apoptosis genes, and in order to verify the effects of […] and mogrol, the expression status of downstream genes of STAT3 and ERK was detected, wherein the influences of the three mogrosides and analogs thereof, i.e. Mogrol I E1, Mogrol II A2 and mogrol, on Bcl-2 and P21 proteins in the histiocytic lymphoma U937 cells, human melanoma A875 cells and leukemia cells K562 were determined, respectively.
(§4) The regulation of Bcl-2 and P21 proteins by mogrosides and analog thereof to the was detected by Western Blotting, specifically: histiocytic lymphoma U937 cells, human melanoma A875 cells and leukemia cells K562 (1×10^6 cells/well) were inoculated into a 6-well culture plate overnight, and 0 and 10 μmol/L of the mogrosides and analogs thereof were added respectively, and kept cultured for 24 h. […]
(§5) The protein concentration was measured with bovine serum albumin (BSA) as the standard. 50 μg of the total proteins were separated by polyacrylamide gel electrophoresis with 12% SDS, and electrophoretically transferred to a PVDF membrane (polyvinylidene fluoride membrane), and blocked for 1 h by 5% of skim milk (containing 0.1% of Tween 20), and then antibodies P21, Bcl-2 and β-actin were added, wherein the primary antibody was incubated at 4° C. overnight (β-actin was used as reference loading amount); the membrane was washed for 3 times with TBS-T, 5 min each time; secondary antibody marked by horseradish peroxidase (HRP) was added for incubation at room temperature for 1 h, the membrane was washed with rinse solution (TBS-T) for 3 times, 10 min each time, and then ECL was added for incubation in dark for 5 min, and subsequently, a fluorescence imaging analyzer was used for image development and scanning analysis.

[4] = test system: leukemia cells K562; experiment: Cell cycle distribution, PI staining, flow cytometer; assay type: cell-based, human; conditions: leukemia cells K562, 10 μmol/L, 24 h
Text: as §1, §2

[5] = test system: anti-apoptotic protein Bcl-2; experiment: Western Blotting of Bcl-2 in U937 cells; assay type: cell-based; conditions: 10 μmol/L, 24 h
Experimental: as §3, §4, §5

[6] = test system: cycle regulatory protein P21; experiment: Western Blotting of P21 in U937 cells; assay type: cell-based; conditions: 10 μmol/L, 24 h
Experimental: as §3, §4, §5

[7] = test system: lymphoma U937 cells; experiment: Cell apoptosis, Annexin V-FITC/PI, flow cytometer; assay type: cell-based; conditions: 10 μmol/L, 24 h
Experimental: (§6) Lymphoma U937 cells, human melanoma A875 cells and leukemia cells K562 in logarithmic growth phase were selected, and after the respective culture with 0 and 10 μmol/L of the mogrosides and analogs thereof (i.e. Mogroside I E1, Mogroside II A2 and mogrol) for 24 h, cells were collected and washed twice with 200 μl of cold PBS, and then the cells were collected again; 100 μl of binding buffer was added for re-suspending the cells, and after the addition of 2 μl of Annexin V-FITC and well mixing, the resulting mixture was placed in dark at room temperature for 10 min, and then 5 μl of propidium iodide (PI) was added and then well mixed; the mixture was placed in dark at room temperature for 10 min, and detected by flow cytometer, and the results are shown in FIGS. 13-15.

[8] = test system: lymphoma U937 cells; experiment: Cell morphology, Hoechst 33258 staining, fluorescence microscope; assay type: cell-based; conditions: lymphoma U937 cells, 10, 100 and 250 μmol/L, 24-hour culture
Experimental: (§7) Lymphoma U937 cells, human melanoma A875 cells and leukemia cells K562 in logarithmic growth phase were selected, and the concentrations of the cells were adjusted to 1×10^4 cells/mL, and the cells were transferred to a 6-well plate for culture, and after the 24-hour culture, drugs were added to achieve final concentrations of 0, 10, 100 and 250 μmol/L, wherein only whole medium was added to the negative control groups, while Mogroside II A2 was added to the positive control groups, after 24-hour culture, waste solution was removed, and fixing solution was added to each well for fixing for 25 min, and then the resulting mixture was washed twice, 3 min each time, and then Hoechst 33258 staining solution was added for staining in dark at room temperature for 30 min, and the cell morphology variation was observed using a fluorescence microscope.

[9] = test system: human melanoma A875 cells; experiment: as above; assay type: cell-based; conditions: A875 melanoma cells, 10, 100 and 250 μmol/L, 24-hour culture
Experimental: as §7

[10] = test system: leukemia cells K562; experiment: Cell apoptosis, Annexin V-FITC/PI, flow cytometer; assay type: cell-based, human; conditions: leukemia cells K562, 10 μmol/L, 24 h
Experimental: as §6

[11] = test system: leukemia cells K562; experiment: Cell morphology, Hoechst 33258 staining, fluorescence microscope; assay type: cell-based, human; conditions: leukemia cells K562, 10, 100 and 250 μmol/L, 24-hour culture
Experimental: as §7

[12] = test system: anti-apoptotic protein Bcl-2; experiment: Western Blotting of Bcl-2 in A875 cells; assay type: cell-based; conditions: human melanoma A875 cells, 10 μmol/L, 24 h
Experimental: as §3, §4, §5

[13] = test system: human melanoma A875 cells; experiment: Cell apoptosis, Annexin V-FITC/PI, flow cytometer; assay type: cell-based; conditions: for cell apoptosis: 10 μmol/L, 24 h
Experimental: Mogroside I E1, Mogroside II A2 and mogrol) for 24 h, cells were collected and washed twice with 200 μl of cold PBS, and then the cells were collected again; 100 μl of binding buffer was added for re-suspending the cells, and after the addition of 2 μl of Annexin V-FITC and well mixing, the resulting mixture was placed in dark at room temperature for 10 min, and then 5 μl of propidium iodide (PI) was added and then well mixed; the mixture was placed in dark at room temperature for 10 min, and detected by flow cytometer, and the results are shown in FIGS. 13-15.

[14] = test system: anti-apoptotic protein Bcl-2; experiment: Western Blotting of Bcl-2 in K562 cells; assay type: cell-based, human; conditions: leukemia cells K562, 10 μmol/L, 24 h
Experimental: as §3, §4, §5

[15] = test system: cycle regulatory protein P21; experiment: Western Blotting of P21 in A875 cells; assay type: cell-based; conditions: human melanoma A875 cells, 10 μmol/L, 24 h
Experimental: as §3, §4, §5

[16] = test system: lymphoma U937 cells, human melanoma A875 cells and leukemia cells K562; experiment: Tests of examples 3 to 8 taken together; assay type: cell-based; conditions: Western Blotting, cell cycle, apoptosis, Hoechst, MTT
[17] = test system: prostate cancer cells, renal carcinoma cells, head and neck squamous cell carcinoma cells, lung cancer cells, ovarian cancer cells, breast cancer cells …; experiment: Tests of examples 3 to 8 on further cancer cells; assay type: cell-based; conditions: pancreatic, liver and colon cancer cells

Compound	proportion of cells in G0/G1 phase with the rise of the concentration [1]	cell cycle distribution (proportion of cells of G0/G1 phase) [1]	cell cycle distribution (proportion of cells in the G0/G1 phase) [2]	expression of cycle regulatory protein P21 [3]	cell cycle distribution (cell cycle arrest) [4]	expression of anti-apoptotic protein Bcl-2 [5]	expression of cycle regulatory protein P21 [6]	cell apoptosis [7]	cell morphology variation (Hoechst 33258) [8]	cell morphology variation (Hoechst 33258) [9]	cell apoptosis [10]	cell morphology variation (Hoechst 33258) [11]	expression of anti-apoptotic protein Bcl-2 [12]	cell apoptosis [13]	expression of anti-apoptotic protein Bcl-2 [14]	expression of cycle regulatory protein P21 [15]	amount for cell apoptosis with the rise of the concentration ([13]; different concentrations (FIG. 16))	results of the tests of examples 3 to 8 [16]	results of the tests of examples 3 to 8 on further cancer cells [17]
C[C@H](CC[C@@H](O)C(C)(C)O)[C@H]1CC[C@@]2(C)[C@H]3CC=C4[C@@H](CC[C@H](O[C@@H]5O[C@H](CO)[C@@H](O)[C@H](O)[C@H]5O)C4(C)C)[C@]3(C)C(O)C[C@]12C (some centres unmarked) [Mogroside I E1]	gradually increased	G0/G1 arrest	G0/G1 arrest	significantly up-regulated	arrested	significantly down-regulated	significantly up-regulated	induce the apoptosis	identical to the results of Mogroside II A2	identical to the results of Mogroside II A2	induce the apoptosis	identical to the results of Mogroside II A2	significantly down-regulated	induce the apoptosis	significantly down-regulated	significantly up-regulated			
C[C@H](CC[C@@H](O)C(C)(C)O)[C@H]1CC[C@@]2(C)[C@H]3CC=C4[C@@H](CC[C@H](O[C@@H]5O[C@H](CO[C@@H]6O[C@H](CO)[C@@H](O)[C@H](O)[C@H]6O)[C@@H](O)[C@H](O)[C@H]5O)C4(C)C)[C@]3(C)[C@H](O)C[C@]12C [Mogroside II A2]	gradually increased	G0/G1 arrest	G0/G1 arrest	significantly up-regulated	arrested	significantly down-regulated	significantly up-regulated	induce the apoptosis	identical to the results of the human melanoma A875 cells	typical variation of cell apoptosis	induce the apoptosis	identical to the results of the human melanoma A875 cells	significantly down-regulated	induce the apoptosis	significantly down-regulated	significantly up-regulated	the amount for cell apoptosis increases		
C[C@H](CC[C@@H](O[C@@H]1O[C@H](CO[C@@H]2O[C@H](CO)[C@@H](O)[C@H](O)[C@H]2O)[C@@H](O)[C@H](O)[C@H]1O[C@@H]1O[C@H](CO)[C@@H](O)[C@H](O)[C@H]1O)C(C)(C)O)[C@H]1CC[C@@]2(C)[C@H]3CC=C4[C@H](CC[C@H](O[C@@H]5O[C@H](CO[C@@H]6O[C@H](CO)[C@@H](O)[C@H](O)[C@H]6O)[C@@H](O)[C@H](O)[C@H]5O[C@@H]5O[C@H](CO)[C@@H](O)[C@H](O)[C@H]5O)C4(C)C)[C@]3(C)[C@H](O)C[C@]12C [Mogroside VI]																		identical to those of Mogrol I E1 and Mogrol II A2	identical to the results of the lymphoma U937 cells
C[C@H](CC[C@@H](O[C@@H]1O[C@H](CO[C@@H]2O[C@H](CO)[C@@H](O)[C@H](O)[C@H]2O)[C@@H](O)[C@H](O)[C@H]1O[C@@H]1O[C@H](CO)[C@@H](O)[C@H](O)[C@H]1O)C(C)(C)O)[C@H]1CC[C@@]2(C)[C@@H]3CC=C4[C@@H](CC[C@H](O[C@@H]5O[C@H](CO[C@@H]6O[C@H](CO)[C@@H](O)[C@H](O)[C@H]6O)[C@@H](O)[C@H](O)[C@H]5O)C4(C)C)[C@]3(C)[C@H](O)C[C@]12C [Mogroside V]																		identical to those of Mogrol I E1 and Mogrol II A2	identical to the results of the lymphoma U937 cells
Mogrol III																		identical to those of Mogrol I E1 and Mogrol II A2	identical to the results of the lymphoma U937 cells
Mogrol IV																		identical to those of Mogrol I E1 and Mogrol II A2	identical to the results of the lymphoma U937 cells
